# Reference: patent publication US20210054047A1, “NOVEL ANTICANCER FUSION PROTEIN AND USE THEREOF” (KOREA INSTITUTE OF SCIENCE AND TECHNOLOGY, priority 2018, published 2021)
# How the values were obtained:
# [1] = In vitro stability (soluble protein in buffer over time); type: physicochemical
# Procedure: The stability of TTPN, DOX-TTPN and mTRAIL was investigated by measuring changes of concentration in a suitable buffer solution. […] At predetermined times, aggregated proteins were collected at 13,000 rpm for 10 minutes, and the concentration of soluble DOX-TTPN and TTPN in the supernatant was measured using absorbance in UV280.
# HepG2 cells [2] = test: Cell viability, CCK-8 assay, HepG2; type: cell-based, human; details: TRAIL-sensitive HepG2 cells, 24 hours (FIG. 17)
# Procedure: After culturing for 24 hours, cell viability was measured using a cell counting kit (CCK)-8 assay (Dojindo Molecular Technologies, Gaithersburg, Md.). The plate was then read with an absorbance microplate reader (Spectramax 340, Molecular Devices Corporation) at a wavelength of 450 nm and 50% effective by regression analysis using SigmaPlot software (Systat Software, Inc., San Jose, Calif.). The concentration value was calculated.
# HepG2 cells [3] = test: Annexin V/PI flow cytometry of apoptosis, HepG2; type: cell-based, human; details: for surviving tumor cells (Annexin V/PI double negative): 24 hours
# Procedure: FIG. 19 is a series of histograms representing flow cytometry analysis of TRAIL-mediated apoptosis of HepG2 cells as an analysis of in vitro TTPN-mediated apoptosis on TRAIL-sensitive-HepG2 cells. Cells were incubated for 24 hours in the presence of different concentrations of mTRAIL and TTPN and analyzed by Annexin V/PI double staining.
# In addition, to investigate whether apoptosis induced by TTPN is induced by the pro-apoptosis pathway of tumor cells, fluorescence-activated cell sorting (FACS) using double staining of Annexin V/propidium iodide (PI) was performed. […] (FIG. 21).
# [4] = system: TRAIL receptors on the surface of HepG2 cells; test: Cell binding by flow cytometry; type: cell-based, human
# Procedure: TRAIL receptor expression was evaluated on various cell surfaces. Specifically, HepG2, HT29, and HEK293T cells (2×10^5) were cultured with four types of anti-human TRAIL receptor antibodies (R&D system, MAB347, MAB6311, MAB6301, MAB633). […] Nanocage bound cells were detected with an Accuri™ C6 flow cytometer (BD Biosciences) and analyzed using FlowJo_V10 software (FlowJo). The binding specificity of TTPN to TRAIL receptor was analyzed by blocking experiments by pre-culture of anti-human TRAIL receptor antibodies and cells at 4° C. for 20 minutes. […] Thereafter, the cells were fixed with 4% paraformaldehyde and stained with Hoechst 33258 before analysis for cell binding detection in a fluorescence microscope (Nikon Eclipse Ti, Nikon). Data were analyzed using LAS AF Lite software (Leica).
# HepG2 tumors = details: mouse, in vivo, iv
# Procedure: The delivery efficiency of TTPN to the tumor microenvironment was investigated by performing an in vivo biodistribution study (n=4 mice/group) of Cy5.5-labeled TTPN using the eXplore Optix System (Advanced Research Technologies Inc., USA). […] Free-Cy5.5 was separated by ultrafiltration (Amicon Ultra 100 K, Millipore), and the fluorescence intensity of the Cy5.5-labeled protein was measured using a fluorescence microplate reader (Infinite M200 Pro, TECAN, Austria). […] The fluorescence intensity of all samples was adjusted to the same value based on the data obtained using a fluorescence microplate reader. To analyze the fluorescence intensity of tumors, the Analysis Workstation software (Advanced Research Technologies Inc.) was used to calculate total photons per […] per steradian (p/s/cm^2/sr) in the region of interest (ROI). At 24 hours post-injection, the mice were sacrificed, and tumors and major organs including liver, lung, spleen, kidney and heart were excised and analyzed in the same manner as described above.
# HepG2 tumor = test: Antitumor efficacy, HepG2 xenograft; type: in vivo, mouse
# Source text: In the evaluation of the anti-tumor effect of the present invention, BALB/c nude male mice (6-7 weeks old) were used as an animal model. Particularly, HT29 cells (5×10^6) and HepG2 cells (5×10^6) were subcutaneously inoculated into the left dorsal flank of BALB/c nude mice, respectively. After a volume of tumors reached ˜80-100 mm^3, mice were randomly divided into the 14 following five treatment groups (6 mice/group); DOX-TTPNs, DOX-FTNs, free DOX, empty TTPNs, and buffer. Mice were intravenously injected five times, once every 2 days, and volume of tumors was determined as 1/2(Length×Width^2). Apoptotic cell death in tumor tissues was analyzed using TUNEL staining (In situ Cell Death Detection kit; Roche), and cells were stained with DAPI (4′,6-diamidino-2-phenylindole), as previously described (Kih et al., Biomaterials 180: 67-77, 2018). Apoptotic cells were visualized under a Nikon Eclipse Ti microscope (Nikon) and quantified as the number of TUNEL-positive cells per total number of cells using ImageJ software. After 21 days from injecting tumor cells, tumor tissues were excised from the experimental mice, and cryo-sections (3.5 μm) were fixed with 10% neutral buffered formalin and paraffin-embedded tissue blocks.
# In addition, to investigate whether tumor growth inhibition by TTPN is induced by apoptosis-inducing activity on tumor cells, tumor tissues from the treated mice were analyzed. On the 15th day after the first injection, mice were euthanized, and apoptosis of tumor tissues was analyzed using terminal deoxynucleotidyl transferase dUTP nick end labeling (TUNEL) staining.
# XIAP = test: Western blot of HT29 lysates: XIAP; type: cell-based, human; details: HT29, 24 hours
# Procedure: After incubating HT29 cells with 50 nM DOX-TTPNs, DOX-FTNs, free DOX, or buffer for 24 hours, cells were lysed with radioimmunoprecipitation assay (RIPA) buffer (Cell Signaling Technology) and the concentration of proteins was measured using a DC protein assay kit (Bio-Rad). Equal amounts of proteins (30 μg) were resolved by SDS-PAGE and transferred to nitrocellulose membranes. After blocking with 5% skim milk in Tris-buffered saline containing 0.1% Tween-20 (TBST), membranes were incubated first with anti-Cl-PARP, anti-Cl-caspase-6, anti-cFLIP, anti-Bcl-xL, anti-XIAP, anti-Cl-caspase-3, or anti-GAPDH primary antibody (Cell Signaling Technology), and then with anti-mouse or anti-rabbit secondary antibodies (Sigma-Aldrich), as appropriate. Immunoreactive proteins were visualized using enhanced chemiluminescence (ECL) chemical reagents (Bio-Rad) and ChemiDoc (Bio-Rad), and were analyzed using ImageJ software.
# HT29 tumor = test: TUNEL analysis of HT29 tumor tissue; type: in vivo, mouse; details: HT29 tumor tissue at the end of the study
# [5] = Dynamic light scattering (DLS) size; type: physicochemical
# [6] = over 1 month (Kih et al.); cited from earlier work
substance,measurement,setting,value
TTPN: protein nanocage presenting TRAIL as natural-like homo-trimers; TRAIL 95-281 fused by linker peptide to human ferritin heavy chain,stability in solution,[1]; 15 mg/mL in PBS buffer for 24 hours (FIG. 15),remarkably improved stability
same,amount maintained in the soluble form,"[1]; after 1 month, 10 mg/mL (FIG. 16)",more than 90%
same,apoptosis,HepG2 cells [2],concentration-dependent apoptosis
same,surviving tumor cells (Annexin V/PI double negative),"HepG2 cells [3]; HepG2, 0.4 nM",83.5%
same,surviving tumor cells (Annexin V/PI double negative),"HepG2 cells [3]; HepG2, 100 nM",12.0%
same,concentration at which Annexin V-positive cells were detected,"HepG2 cells [3]; HepG2, 24 hours (FIG. 20)",0.4 nM
same,binding on the surface of HepG2 cells,"[4]; 400 nM, 4° C., 20 minutes",greater effect than wtFTN
same,binding after pre-incubation with four anti-TRAIL receptor antibodies,"[4]; HepG2, 400 nM",reduced
same,fluorescence intensity of tumors,HepG2 tumors,higher than that of wtFTN and mTRAIL
same,tumor volume inhibition relative to mTRAIL,HepG2 tumor,3.1 times
same,inhibition of tumor volume,"HepG2 tumor; i.v. every 2 days, TTPN 23 mg/kg, mTRAIL 12 mg/kg",80.52%
same,decrease in XIAP levels compared with buffer treatment,XIAP,no significant effect
same,TUNEL-positive tumor cells,HT29 tumor,0.01%
same,average size (DLS),[5],25.85 nm
same,stability,[6],more than 90%
